The record followed here is ChEMBL document CHEMBL1201862, “PubChem BioAssay data set” (2004).

Among the test systems are 786-0; A549; EKVX; HCC 2998; IGROV-1; MOLT-4; NCI-H23; NCI-H460; OVCAR-3; OVCAR-4; OVCAR-8; SF-539; SNB-19; SNB-75; SW-620; UACC-62; U-251; HOP-92.
Experiment in all cases: NCI anticancer screen, dose series, 48 h

Molecules are shown by their SMILES.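 Results reflect a 48-hour exposure of cells in 96-well plates to compound at five concentrations. GI50 = concentration required for 50% inhibition of growth.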 Active and inactive are the calls of the source. No stated cut-off is given here; in the data, active = GI50 up to about 1.1 µM and inactive = higher.

In the case of `COC1(OC)CCCCC2c3cccc(OC(C)=O)c3C21OC(C)=O` (centres undefined), the GI50 is > 100 µM (inactive) in the assay on 786-0; > 100 µM (inactive) in the assay with A549; > 100 µM (inactive) with EKVX; > 100 µM (inactive) in the assay on HCC 2998; > 100 µM (inactive) in the assay with IGROV-1; 64.3 µM (inactive) in the assay on MOLT-4. Moreover, the GI50 in the assay on NCI-H23 was > 100 µM (inactive); in the assay on NCI-H460, > 10 µM (inactive); in the assay on OVCAR-3, 94 µM (inactive); with OVCAR-4, > 100 µM (inactive); in the assay on OVCAR-8 it was > 100 µM (inactive); with SF-539, > 100 µM (inactive). Besides, the GI50 with SNB-19, in the assay with SNB-75, in the assay with SW-620 and in the assay on UACC-62 was > 100 µM (inactive) each time.
On to `COC(=O)c1c/c(=N\NC(=O)CC(=O)Nc2ccccc2OC)c2ccccc2o1`, for which the GI50 in the assay on 786-0 was 66.4 µM (inactive); in the assay on A549, 74.8 µM (inactive); in the assay with EKVX, > 100 µM (inactive); in the assay on HCC 2998, 93.1 µM (inactive); in the assay with IGROV-1 it was > 100 µM (inactive); with MOLT-4 it was 75.7 µM (inactive). The GI50 with NCI-H23 was > 100 µM (inactive); with NCI-H460 it was 76 µM (inactive); in the assay with OVCAR-3, > 100 µM (inactive); in the assay on OVCAR-4, > 100 µM (inactive); in the assay with SF-539 it was > 100 µM (inactive); with SNB-19 it was > 100 µM (inactive). Also, the GI50 in the assay with SNB-75, with SW-620, in the assay with U-251 and in the assay with UACC-62 was > 100 µM (inactive) each time.
Consider `CCOC(=O)C1N(S(=O)(=O)c2ccc(C)cc2)CCC12c1ccccc1N(C(C)=O)C2C(/C=C/C(=O)OC)=C/C(=O)OC` (centres undefined), for which the GI50 was > 100 µM (inactive) with 786-0; 84.1 µM (inactive) with A549; > 100 µM (inactive) with EKVX; > 100 µM (inactive) with HCC 2998; 44.1 µM (inactive) with HOP-92; > 100 µM (inactive) in the assay on IGROV-1. In addition, the GI50 in the assay on NCI-H23, with NCI-H460, in the assay on OVCAR-3, in the assay on OVCAR-4, in the assay on OVCAR-8 and in the assay on SF-539 was > 100 µM (inactive) each time. The GI50 in the assay on SNB-19, in the assay with SNB-75, with SW-620, in the assay with U-251 and with UACC-62 was > 100 µM (inactive) in each case.
With `CN(C)CCNc1ccc2ncn3c4ccccc4c(=O)c1c23`, the GI50 with 786-0 is 2.03 µM (inactive); in the assay on A549, 1.82 µM (inactive); in the assay with HOP-92, 2.3 µM (inactive); in the assay with IGROV-1, 2.42 µM (inactive); in the assay on MOLT-4, 0.615 µM (active); in the assay on NCI-H23, 3.32 µM (inactive). In addition, the GI50 was 0.805 µM (active) in the assay on NCI-H460; 7.76 µM (inactive) in the assay on OVCAR-3; 1.99 µM (inactive) with OVCAR-4; 1.15 µM (inactive) in the assay on OVCAR-8; 3.62 µM (inactive) in the assay on SF-539; 7.96 µM (inactive) with SNB-19. In addition, the GI50 was 3.25 µM (inactive) with SNB-75, 0.826 µM (active) in the assay on SW-620, 3.02 µM (inactive) in the assay with U-251 and 3.22 µM (inactive) in the assay on UACC-62.
Turning to `N=C(N)n1ncc(Cl)c(Cl)c1=O`, the GI50 in the assay with 786-0 is 2.76 µM (inactive); with A549, 17.1 µM (inactive); in the assay with EKVX it was 2.36 µM (inactive); in the assay with HOP-92, 2.43 µM (inactive); in the assay on IGROV-1, 11.1 µM (inactive); in the assay on MOLT-4 it was 2.02 µM (inactive). For the same compound, the GI50 in the assay on NCI-H23 was 2.45 µM (inactive); with NCI-H460, 5.97 µM (inactive); with OVCAR-3, 1.91 µM (inactive); in the assay with OVCAR-4 it was 1.91 µM (inactive); in the assay on OVCAR-8, 2.15 µM (inactive); in the assay on SF-539, 2.34 µM (inactive). The GI50 is 4.16 µM (inactive) with SNB-19; 2.99 µM (inactive) with SNB-75; 1.88 µM (inactive) in the assay on SW-620; 7.11 µM (inactive) with U-251; 2.48 µM (inactive) in the assay with UACC-62.
On to `CC1(C)CC(=O)C(=[N+]=[N-])C(=O)C1`, for which the GI50 in the assay on 786-0, with A549, in the assay with EKVX, in the assay on HCC 2998, with HOP-92 and in the assay on IGROV-1 was > 100 µM (inactive) each time. Also, the GI50 in the assay with NCI-H23, with OVCAR-3, with OVCAR-4, with SF-539, in the assay on SNB-19 and in the assay on SNB-75 was > 100 µM (inactive) in each case. The GI50 in the assay with SW-620 and in the assay on UACC-62 was > 100 µM (inactive) in each case.
For the compound `COC(=O)C(Cc1nc2ccccc2nc1O)C(NO)C(=O)Nc1c(Cl)cc([N+](=O)[O-])cc1Cl` (centres undefined), the GI50 is 40.6 µM (inactive) with 786-0; 38.5 µM (inactive) in the assay on A549; 27.7 µM (inactive) with EKVX; 59.6 µM (inactive) in the assay on HCC 2998; 5.56 µM (inactive) in the assay on HOP-92; 40.8 µM (inactive) in the assay with IGROV-1. Besides, the GI50 was 27.9 µM (inactive) in the assay on MOLT-4; 22.4 µM (inactive) with NCI-H23; 20.7 µM (inactive) in the assay on NCI-H460; 40.6 µM (inactive) with OVCAR-3; 38.5 µM (inactive) in the assay on OVCAR-4; 30.4 µM (inactive) in the assay with OVCAR-8. The GI50 in the assay with SF-539 was 22.8 µM (inactive); with SNB-19, 40.1 µM (inactive); in the assay with U-251 it was 31.3 µM (inactive); in the assay with UACC-62 it was 18 µM (inactive).
`O=C(CCC(=O)C1Cc2ccccc2C1=O)Nc1cccc(C(F)(F)F)c1` (centres undefined): the GI50 with 786-0, in the assay on A549, in the assay on EKVX, in the assay with HCC 2998, with HOP-92 and in the assay on IGROV-1 was > 100 µM (inactive) each time. For the same compound, the GI50 with MOLT-4, with NCI-H23, in the assay with NCI-H460, in the assay with OVCAR-3, in the assay on OVCAR-4 and with OVCAR-8 was > 100 µM (inactive) each time. For the same compound, the GI50 in the assay on SF-539, with SNB-19, in the assay with SW-620, with U-251 and with UACC-62 was > 100 µM (inactive) each time.
Consider `O=C(CN(c1ccccc1)c1ccccc1)N1c2ccccc2C2C=CC=CC21` (centres undefined), for which the GI50 with 786-0 was 22.6 µM (inactive); in the assay on A549, 23.8 µM (inactive); in the assay on EKVX, 24.3 µM (inactive); with IGROV-1 it was 21.3 µM (inactive); in the assay with MOLT-4, 8.05 µM (inactive); with NCI-H23 it was 23.2 µM (inactive). For the same compound, the GI50 in the assay with NCI-H460 was 19.3 µM (inactive); in the assay on OVCAR-3, 17.4 µM (inactive); with OVCAR-4, 11.1 µM (inactive); with OVCAR-8 it was 20.7 µM (inactive); in the assay on SF-539, 18.8 µM (inactive); with SNB-19 it was 17.5 µM (inactive). Further, the GI50 was 18.1 µM (inactive) in the assay on SNB-75, 23.7 µM (inactive) with SW-620, 21.3 µM (inactive) with U-251 and 21.1 µM (inactive) in the assay with UACC-62.
On to `COC(=O)C1=CC2OC1(C)C1(CC1)C2=O` (centres undefined), for which the GI50 in the assay with 786-0 is 17.2 µM (inactive); in the assay with A549, 24.3 µM (inactive); in the assay with EKVX, 15.2 µM (inactive); in the assay on HCC 2998, 18.3 µM (inactive); in the assay with IGROV-1 it was 17.9 µM (inactive); in the assay on MOLT-4 it was 6.92 µM (inactive). For the same compound, the GI50 in the assay on NCI-H23 was 22 µM (inactive); in the assay on NCI-H460, 22.6 µM (inactive); in the assay on OVCAR-3, 16.2 µM (inactive); in the assay on OVCAR-4, 11.6 µM (inactive); with OVCAR-8, 16 µM (inactive); with SF-539, 17.6 µM (inactive). The GI50 in the assay with SNB-19 is > 100 µM (inactive); in the assay on SNB-75 it was 19.8 µM (inactive); with SW-620, 14.7 µM (inactive); in the assay on U-251, > 100 µM (inactive).
Consider `CC1CC[C@]2(C(=O)O)CCC3(COC(=O)/C=C\c4ccc(O)cc4)C(=CCC4[C@@]5(C)CC[C@H](O)C(C)(C)C5CC[C@]43C)[C@@H]2[C@H]1C` (some centres undefined), for which the GI50 with 786-0 is 21.3 µM (inactive); with A549, 11.3 µM (inactive); in the assay on EKVX, 16.7 µM (inactive); with HCC 2998, 17.2 µM (inactive); in the assay on IGROV-1 it was 11.5 µM (inactive); in the assay on MOLT-4 it was 26.6 µM (inactive). Further, the GI50 in the assay on NCI-H23 was 13.9 µM (inactive); in the assay with NCI-H460 it was 15.7 µM (inactive); in the assay on OVCAR-3 it was 18.2 µM (inactive); with OVCAR-4, 39.3 µM (inactive); with OVCAR-8, 20.1 µM (inactive); in the assay with SF-539, 15.8 µM (inactive). Further, the GI50 was 12.3 µM (inactive) in the assay with SNB-19; 27.7 µM (inactive) in the assay with SNB-75; 27.9 µM (inactive) with SW-620; 9.79 µM (inactive) with U-251; 17.2 µM (inactive) in the assay with UACC-62.
`CCOC(=O)C(C)(C)Oc1ccc2c(=O)cc(-c3ccccc3)oc2c1`: the GI50 is 16.3 µM (inactive) in the assay with 786-0; 23.1 µM (inactive) with A549; 31.9 µM (inactive) in the assay with EKVX; > 100 µM (inactive) in the assay with HCC 2998; 29.5 µM (inactive) in the assay on IGROV-1; 13.8 µM (inactive) with MOLT-4. Also, the GI50 is 18.6 µM (inactive) with NCI-H23; 27.7 µM (inactive) in the assay on NCI-H460; 19.5 µM (inactive) in the assay with OVCAR-3; 23 µM (inactive) in the assay on OVCAR-8; 20.2 µM (inactive) with SF-539; 18.8 µM (inactive) in the assay on SNB-19. For the same compound, the GI50 is 19.1 µM (inactive) with SNB-75, 22.8 µM (inactive) in the assay on SW-620, 18.2 µM (inactive) in the assay with U-251 and 18.2 µM (inactive) with UACC-62.
